Reference: PubChem BioAssay (NCI)
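Cultured in 96-well plates, cells were exposed to test compound for 48 hours across five concentrations. TGI: total growth inhibition.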

Tests used:
Assay in all cases: NCI tumour cell line growth inhibition, 48 h
[1] = system: 786-0 renal
[2] = system: A498 renal
[3] = system: A549 NSCLC
[4] = system: ACHN renal
[5] = system: BT-549 breast
[6] = system: CAKI-1 renal
[7] = system: CCRF-CEM leukemia
[8] = system: COLO 205 colon
[9] = system: DU-145 prostate
[10] = system: EKVX NSCLC
[11] = system: HCT-116 colon
[12] = system: HCT-15 colon
[13] = system: HL-60(TB) leukemia
[14] = system: HOP-62 NSCLC
[15] = system: HOP-92 NSCLC
[16] = system: HS 578T breast
[17] = system: HT29 colon
[18] = system: IGROV1 ovarian
[19] = system: K-562 leukemia
[20] = system: KM12 colon
[21] = system: LOX IMVI melanoma
[22] = system: M14 melanoma
[23] = system: MALME-3M melanoma
[24] = system: MCF7 breast
[25] = system: MDA-MB-231 breast
[26] = system: MDA-MB-435
[27] = system: MDA-N
[28] = system: MOLT-4 leukemia
[29] = system: NCI-H226 lung
[30] = system: NCI-H23 lung
[31] = system: NCI-H460 lung
[32] = system: NCI-H522 lung
[33] = system: NCI/ADR-RES ovarian
[34] = system: OVCAR-3 ovarian
[35] = system: OVCAR-4 ovarian
[36] = system: OVCAR-5 ovarian
[37] = system: OVCAR-8 ovarian
[38] = system: PC-3 prostate
[39] = system: RPMI-8226 leukemia
[40] = system: RXF 393 renal
[41] = system: SF-268 CNS
[42] = system: SF-295 CNS
[43] = system: SF-539 CNS
[44] = system: SK-MEL-2 melanoma
[45] = system: SK-MEL-28 melanoma
[46] = system: SK-MEL-5 melanoma
[47] = system: SK-OV-3 ovarian
[48] = system: SN12C renal
[49] = system: SNB-19 CNS
[50] = system: SR leukemia
[51] = system: SW-620 colon
[52] = system: T-47D breast
[53] = system: TK-10 renal
[54] = system: U251 CNS
[55] = system: UACC-257 melanoma
[56] = system: UACC-62 melanoma
[57] = system: UO-31 renal
[58] = system: HCC-2998 colon

O=C(O)C1Cc2c([nH]c3ccccc23)C(CCCCO)N1 (stereo not given)
TGI [1]: > 100 µM | TGI [2]: > 100 µM | TGI [3]: > 100 µM | TGI [4]: > 100 µM | TGI [5]: > 100 µM | TGI [6]: > 100 µM | TGI [7]: > 100 µM | TGI [8]: > 100 µM | TGI [9]: > 100 µM | TGI [10]: > 100 µM | TGI [11]: > 100 µM | TGI [12]: > 100 µM | TGI [13]: > 100 µM | TGI [14]: > 100 µM | TGI [15]: > 100 µM | TGI [16]: > 100 µM | TGI [17]: > 100 µM | TGI [18]: > 100 µM | TGI [19]: > 100 µM | TGI [20]: > 100 µM | TGI [21]: > 100 µM | TGI [22]: > 100 µM | TGI [23]: > 100 µM | TGI [24]: > 100 µM | TGI [25]: > 100 µM | TGI [26]: > 100 µM | TGI [27]: > 100 µM | TGI [28]: > 100 µM | TGI [29]: > 100 µM | TGI [30]: > 100 µM | TGI [31]: > 100 µM | TGI [32]: > 100 µM | TGI [33]: > 100 µM | TGI [34]: > 100 µM | TGI [35]: > 100 µM | TGI [36]: > 100 µM | TGI [37]: > 100 µM | TGI [38]: > 100 µM | TGI [39]: > 100 µM | TGI [40]: > 100 µM | TGI [41]: > 100 µM | TGI [42]: > 100 µM | TGI [43]: > 100 µM | TGI [44]: > 100 µM | TGI [45]: > 100 µM | TGI [46]: > 100 µM | TGI [47]: > 100 µM | TGI [48]: > 100 µM | TGI [49]: > 100 µM | TGI [50]: > 100 µM | TGI [51]: > 100 µM | TGI [52]: > 100 µM | TGI [53]: > 100 µM | TGI [54]: > 100 µM | TGI [55]: > 100 µM | TGI [56]: > 100 µM | TGI [57]: > 100 µM

Cc1ccc(/C(O)=C/c2nc3ccccc3[nH]c2=O)cc1
TGI [1]: 5.61 µM | TGI [2]: 58.2 µM | TGI [3]: 19.6 µM | TGI [4]: 14.5 µM | TGI [5]: 95.3 µM | TGI [6]: 14.2 µM | TGI [7]: > 100 µM | TGI [8]: > 100 µM | TGI [9]: 21.5 µM | TGI [10]: 21.1 µM | TGI [58]: > 100 µM | TGI [11]: 5.7 µM | TGI [12]: > 100 µM | TGI [13]: > 100 µM | TGI [14]: 5.16 µM | TGI [15]: 27.1 µM | TGI [16]: 6.79 µM | TGI [17]: 67.2 µM | TGI [18]: 5.92 µM | TGI [19]: > 100 µM | TGI [20]: > 100 µM | TGI [21]: 52.1 µM | TGI [22]: 73.4 µM | TGI [23]: 13.4 µM | TGI [24]: > 100 µM | TGI [25]: 15.2 µM | TGI [26]: 31.8 µM | TGI [27]: > 100 µM | TGI [28]: > 100 µM | TGI [29]: 6.4 µM | TGI [30]: 33.4 µM | TGI [31]: 37.3 µM | TGI [32]: 6.59 µM | TGI [33]: 23 µM | TGI [34]: 11.2 µM | TGI [35]: 4.04 µM | TGI [36]: > 100 µM | TGI [37]: 12.2 µM | TGI [38]: > 100 µM | TGI [39]: 47.5 µM | TGI [40]: 7.1 µM | TGI [41]: 24 µM | TGI [42]: 14.6 µM | TGI [43]: 27.6 µM | TGI [44]: 17.6 µM | TGI [45]: 23.2 µM | TGI [46]: > 100 µM | TGI [47]: 5.64 µM | TGI [48]: 34 µM | TGI [49]: 27.8 µM | TGI [50]: 72.9 µM | TGI [52]: 16.3 µM | TGI [53]: 11.1 µM | TGI [54]: 22.6 µM | TGI [55]: 87.4 µM | TGI [56]: 9.38 µM | TGI [57]: 21 µM

COc1ccc2c(c1)CCc1cc(C(N)=O)c3nnnn3c1-2
TGI [1]: > 100 µM | TGI [2]: 62.2 µM | TGI [3]: > 100 µM | TGI [4]: > 100 µM | TGI [5]: > 100 µM | TGI [6]: > 100 µM | TGI [7]: > 91.2 µM | TGI [8]: > 100 µM | TGI [9]: > 100 µM | TGI [58]: > 100 µM | TGI [11]: > 100 µM | TGI [12]: > 100 µM | TGI [13]: > 100 µM | TGI [14]: > 100 µM | TGI [15]: > 100 µM | TGI [16]: > 100 µM | TGI [17]: > 100 µM | TGI [18]: > 100 µM | TGI [19]: > 100 µM | TGI [20]: > 100 µM | TGI [21]: > 100 µM | TGI [22]: > 100 µM | TGI [23]: > 100 µM | TGI [24]: > 100 µM | TGI [25]: > 100 µM | TGI [26]: > 100 µM | TGI [27]: > 100 µM | TGI [28]: > 76.9 µM | TGI [29]: > 100 µM | TGI [30]: > 100 µM | TGI [31]: 50.9 µM | TGI [32]: > 100 µM | TGI [33]: > 100 µM | TGI [34]: > 100 µM | TGI [35]: > 100 µM | TGI [36]: > 100 µM | TGI [37]: > 100 µM | TGI [38]: > 100 µM | TGI [39]: > 100 µM | TGI [40]: 63 µM | TGI [41]: 29.3 µM | TGI [42]: 98.5 µM | TGI [43]: > 100 µM | TGI [44]: > 75.5 µM | TGI [45]: > 100 µM | TGI [46]: > 100 µM | TGI [47]: > 100 µM | TGI [48]: > 100 µM | TGI [49]: > 100 µM | TGI [50]: > 100 µM | TGI [51]: > 100 µM | TGI [52]: > 100 µM | TGI [53]: > 100 µM | TGI [54]: > 67.4 µM | TGI [55]: > 100 µM | TGI [56]: 23.9 µM
